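Values below derive from 48-hour exposures of cells grown in 96-well plates, with endpoints linearly interpolated between the two concentrations bracketing the appropriate inhibition level. GI50 marks 50% less growth. Definition used: TGI = concentration required for complete inhibition of growth.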
Legend:
Assay in all cases: growth of human tumour cells (NCI), 48 h
SR leukemia = system: SR leukemia
CCRF-CEM leukemia = system: CCRF-CEM leukemia
MOLT-4 leukemia = system: MOLT-4 leukemia
UO-31 renal = system: UO-31 renal
HL-60(TB) leukemia = system: HL-60(TB) leukemia
PC-3 prostate = system: PC-3 prostate
DU-145 prostate = system: DU-145 prostate
HOP-92 NSCLC = system: HOP-92 NSCLC
A498 renal = system: A498 renal
K-562 leukemia = system: K-562 leukemia
SK-MEL-2 melanoma = system: SK-MEL-2 melanoma
RPMI-8226 leukemia = system: RPMI-8226 leukemia
SK-OV-3 ovarian = system: SK-OV-3 ovarian
SNB-75 CNS = system: SNB-75 CNS
UACC-257 melanoma = system: UACC-257 melanoma
SW-620 colon = system: SW-620 colon
RXF 393 renal = system: RXF 393 renal
KM12 colon = system: KM12 colon
TK-10 renal = system: TK-10 renal
HCC-2998 colon = system: HCC-2998 colon
SK-MEL-5 melanoma = system: SK-MEL-5 melanoma
SN12C renal = system: SN12C renal
NCI-H23 lung = system: NCI-H23 lung
CAKI-1 renal = system: CAKI-1 renal
786-0 renal = system: 786-0 renal
HOP-62 NSCLC = system: HOP-62 NSCLC
EKVX NSCLC = system: EKVX NSCLC
LOX IMVI melanoma = system: LOX IMVI melanoma
SF-295 CNS = system: SF-295 CNS
M14 melanoma = system: M14 melanoma
SF-268 CNS = system: SF-268 CNS
T-47D breast = system: T-47D breast
MALME-3M melanoma = system: MALME-3M melanoma
HT29 colon = system: HT29 colon
SK-MEL-28 melanoma = system: SK-MEL-28 melanoma
COLO 205 colon = system: COLO 205 colon
MCF7 breast = system: MCF7 breast
MDA-MB-231 breast = system: MDA-MB-231 breast
OVCAR-8 ovarian = system: OVCAR-8 ovarian
A549 NSCLC = system: A549 NSCLC
IGROV1 ovarian = system: IGROV1 ovarian

Cc1ccc(NC(=O)c2[nH]c(SCCN(C)C)nc2-c2ccc(F)cc2)cc1C#Cc1cnc2cccnn12
GI50 (SR leukemia): 0.46 µM
TGI (SR leukemia): 2.22 µM
GI50 (CCRF-CEM leukemia): 2.08 µM
TGI (CCRF-CEM leukemia): 6.92 µM
GI50 (MOLT-4 leukemia): 1.93 µM
TGI (MOLT-4 leukemia): 4.83 µM
GI50 (UO-31 renal): 1.38 µM
TGI (UO-31 renal): 2.79 µM
GI50 (HL-60(TB) leukemia): 1.38 µM
TGI (HL-60(TB) leukemia): 3.14 µM
GI50 (PC-3 prostate): 2.12 µM
TGI (PC-3 prostate): 4.89 µM
GI50 (DU-145 prostate): 1.83 µM
TGI (DU-145 prostate): 3.34 µM
GI50 (HOP-92 NSCLC): 1.08 µM
TGI (HOP-92 NSCLC): 2.73 µM
GI50 (A498 renal): 1.76 µM
TGI (A498 renal): 3.32 µM
GI50 (K-562 leukemia): 0.127 µM
TGI (K-562 leukemia): 1.55 µM
GI50 (SK-MEL-2 melanoma): 1.35 µM
TGI (SK-MEL-2 melanoma): 3.16 µM
GI50 (RPMI-8226 leukemia): 1.91 µM
TGI (RPMI-8226 leukemia): 6.05 µM
GI50 (SK-OV-3 ovarian): 1.92 µM
TGI (SK-OV-3 ovarian): 3.44 µM
GI50 (SNB-75 CNS): 1.59 µM
TGI (SNB-75 CNS): 2.99 µM
GI50 (UACC-257 melanoma): 1.88 µM
TGI (UACC-257 melanoma): 3.51 µM

CCOC(=O)c1sc2nc(-c3ccccc3)nn2c1CBr
TGI (SR leukemia): 1.51 µM
TGI (SW-620 colon): 3.88 µM
TGI (RXF 393 renal): 4.07 µM
TGI (KM12 colon): 4.14 µM
TGI (CCRF-CEM leukemia): 0.642 µM
TGI (TK-10 renal): 4.47 µM
TGI (MOLT-4 leukemia): 1.18 µM
TGI (HL-60(TB) leukemia): 1.34 µM
TGI (PC-3 prostate): 4.16 µM
TGI (HCC-2998 colon): > 10 µM
TGI (SK-MEL-5 melanoma): 3.49 µM
TGI (SN12C renal): 3.21 µM
TGI (NCI-H23 lung): 3.78 µM
TGI (DU-145 prostate): > 10 µM
TGI (CAKI-1 renal): 2.83 µM
TGI (786-0 renal): 2.95 µM
TGI (HOP-62 NSCLC): > 10 µM
TGI (EKVX NSCLC): > 10 µM
TGI (LOX IMVI melanoma): 3.17 µM
TGI (SF-295 CNS): > 10 µM
TGI (M14 melanoma): 2.85 µM
TGI (K-562 leukemia): 1.96 µM
TGI (SF-268 CNS): 4.19 µM
TGI (T-47D breast): 5.71 µM
TGI (MALME-3M melanoma): 4.94 µM
TGI (HT29 colon): 3.77 µM
TGI (SK-MEL-28 melanoma): 3.41 µM
TGI (COLO 205 colon): 3.73 µM
TGI (MCF7 breast): 3.78 µM
TGI (MDA-MB-231 breast): 3.69 µM
TGI (OVCAR-8 ovarian): 4.03 µM
TGI (RPMI-8226 leukemia): 4.25 µM
TGI (SK-OV-3 ovarian): > 10 µM
TGI (A549 NSCLC): > 10 µM
TGI (IGROV1 ovarian): > 10 µM
TGI (SNB-75 CNS): 3.69 µM
TGI (UACC-257 melanoma): 3.92 µM
